Several values for one entry are separate records, joined by “and”; a condition that tells them apart may be missing. Identical values can stand only once. Entries after “also recorded” stand apart in the source; their conditions may differ. Like-named read-outs stand apart in the source and are kept apart here.
What was measured:
[1] = system: mice with sepsis shock induced by 75 mg/kg endotoxin; assay: Survival of mice with sepsis shock induced by 75 mg/kg endotoxin; format: in vivo; conditions: for number of mice survived / number of mice died: 10 mice per group; for number of mice survived: endotoxin group 4 survived; for number of mice died: endotoxin group 6 died; for survival rate of mice: sepsis shock induced by 75 mg/kg endotoxin i.p., 10 animals per group, endotoxin group 40%, normal control 100%
Method: (§1) The model of septic shock in mice was induced by intraperitoneal injection of a toxic dose of 75 mg/kg endotoxin. […] The model of sepsis shock in mice was induced by intraperitoneal injection of a total lethal dose of 150 mg/kg endotoxin. […] Mice injected intraperitoneally with placebo in place of endotoxin were used as a normal control group.
The model of sepsis shock in mice was induced with 75 mg/kg endotoxin.

[2] = system: lung tissue of rats with sepsis shock; assay: Pathological change in lung tissue under microscope, rats with sepsis shock; format: in vivo; conditions: compared with the endotoxin group
[3] = system: mice with sepsis shock induced by 150 mg/kg endotoxin; assay: Survival time of mice with sepsis shock induced by 150 mg/kg endotoxin; format: in vivo; conditions: for average survival time of mice: 150 mg/kg endotoxin i.p. (total lethal dose), endotoxin group 29.15±6.84 hours, p<0.05 vs endotoxin group
Method: as §1
The septic shock in mice was induced with 150 mg/kg endotoxin and the survival curves were plotted according to the survival time of mice in each group.

[4] = system: liver tissue of rats with sepsis shock; assay: Pathological change in liver tissue under microscope, rats with sepsis shock; format: in vivo; conditions: compared with the endotoxin group
Method: as §1

TNF-α in serum = assay: Serum TNF-α concentration in rats with endotoxin-induced sepsis shock; format: in vivo
[5] = system: gastric and duodenal ulcers; conditions: patients; cited from earlier work
[6] = cited from earlier work
[7] = cited from earlier work; remark: listed apart in the source
[8] = system: mouse sepsis model (LPS 75 mg/kg); assay: Effects of different doses of pirenzepine in LPS mouse sepsis model; conditions: 0.3-1.2 mg/kg i.p.; no statistically significant difference between dose groups
Method: After 30 minutes, LPS (75 mg/kg) was injected intraperitoneally to produce a mouse sepsis model.

[9] = 0 min after sepsis shock was reached, endotoxin group 641.05±24.75, normal control 159.36±50.40
[10] = 30 min after sepsis shock was reached, endotoxin group 677.95±47.05, normal control 223.41±27.42
[11] = 90 min after sepsis shock was reached, endotoxin group 716.11±24.41, normal control 166.86±28.80

Row | SMILES | number of mice survived ([1]; 75 mg/kg endotoxin) | number of mice died ([1]; 75 mg/kg endotoxin) | survival rate of mice [1] [%] | pathological changes of the lung tissue under microscope [2] | average survival time of mice [3] [h] | pathological changes of the liver tissue under microscope [4] | concentration of TNF-α in serum of rats (TNF-α in serum; [9]) | concentration of TNF-α in serum of rats (TNF-α in serum; [10]) | concentration of TNF-α in serum of rats (TNF-α in serum; [11]) | further results
1 | CCN(CC)CC1CCCCN1CC(=O)N1c2ccccc2C(=O)Nc2cccnc21 (centres unmarked) [AF-DX116, 11-[[2-[(Diethylamino)methyl]-1-piperidinyl]acetyl]-5,11-dihydro-6H-pyrido[2,3-b][1,4]benzodi azepin-6-one] | 1 | 9 | 10 | the destruction of the tissue was aggravated; also recorded: pathological changes were aggravated | 16.02 ± 2.06 | cell necrosis was more serious; also recorded: cell necrosis was more severe | 706.19 ± 6.00 pg/mL | 757.48 ± 51.40 pg/mL | 857.21 ± 74.14 pg/mL | concentration of TNF-α in serum of rats (TNF-α in serum; 150 min after sepsis shock was reached, endotoxin group 737.00±16.38, normal control 161.47±9.75): 932.22 ± 17.25 pg/mL
2 | CN1[C@@H]2CC[C@H]1C[C@@H](OC(=O)C(CO)c1ccccc1)C2 (some centres unmarked) [atropine] | 7 |  | 70 | congestion, exudation, and necrosis were significantly reduced; also recorded: the exudation was significantly reduced, and alveolar septum widening was reduced | 37.15 ± 9.27 | the lesions were all relieved; also recorded: the edema and necrosis of hepatocytes were all reduced |  |  | 598.54±48.85 pg/mL and 598.54 ± 48.85^f pg/mL | 
3 | CN1CCN(CC(=O)N2c3ccccc3C(=O)Nc3cccnc32)CC1 [pirenzepine, 11-[(4-methylpiperazin-1-yl)acetyl]-5,11-dihydro-6H-pyrido[2,3-b][1,4]benzodiazepin-6-one] | 8 | 2 | 80 | congestion, exudation, and necrosis were significantly reduced; also recorded: the exudation was significantly reduced, and edema and inflammation in the alveolar septum were reduced | 44.6 ± 11.96 | the lesions were all relieved; also recorded: the lesions were reduced | 378.12±17.87 pg/mL and 378.12 ± 17.87^a pg/mL | 418.19±22.75 pg/mL and 418.19 ± 22.75^c pg/mL | 446.35±33.04 pg/mL and 446.35 ± 33.04^e pg/mL | effect on mortality of mice with sepsis ([1]; 75 mg/kg endotoxin, FIG. 1): significantly reduced the mortality; healing rate of the ulcer [5]: 70%-94%; plasma protein binding rate ([6]; in vivo): about 10%; plasma t½ ([6]; in vivo): 10 to 12 h; tmax ([6]; oral): 2 to 3 h; absolute bioavailability ([6]; oral, printed spread (±4,6%)): about 26%; solubility ([7]; in anhydrous ethanol): very easily soluble; solubility ([7]; in formic acid): soluble; solubility ([7]; in methanol): insoluble; solubility ([7]; in water): soluble; effect on mortality of mice with sepsis ([3]; 150 mg/kg endotoxin, FIG. 2): significantly reduced the mortality; serum TNF-α concentrations compared with the endotoxin-untreated group (TNF-α in serum; rats, at 0, 30, 90 and 150 minutes, p<0.05): significantly lower; effect of low-dose pretreatment on survival time of mice with sepsis [8]: can prolong the survival time

Source: patent publication US20190022104A1 (priority 2016, published 2019)
